Measurements: publication PMC12656327 (Pharmaceutics, 2025)
Where “and” joins values, the source holds several entries; their conditions need not be identical. Identical values can stand only once. Like-named read-outs stand apart in the source and are kept apart here.

Experiments:
[1] = NO release, Griess assay (phosphate buffer pH 7.4 with L-cysteine); type: physicochemical; conditions: for NO Released (%) 1 h: 1 h incubation, expressed as % NO2− (μmol/μmol), Griess assay, physiological conditions, furoxan 100 µM; for NO Released (%) 24 h: 24 h incubation; for NO Released (%) 24 h / NO Released (%) 48 h: % NO2− (μmol/μmol); for NO Released (%) 48 h: 48 h incubation; for NO-donor ranking (in words): among all tested compounds
[2] = test system: MRC-5 (human embryonic lung fibroblast) cells; test: MTT cytotoxicity, MRC-5 cells, 72 h; type: cell-based; conditions: MRC5, 72 h exposure
[3] = test system: AB1 cells; test: NO release in vitro in AB1 cells (Griess reagent); type: cell-based, mouse; conditions: 25 μM, 24 h, relative to untreated cells
[4] = test system: AB1 (mouse malignant mesothelioma) cells; test: cells; conditions: AB1, 72 h, read-out: IC50 AB1
[5] = test system: JU77 (human malignant mesothelioma) cells; test: cells; conditions: 72 h, read-out: IC50 JU77
[6] = test system: JU77 (human malignant mesothelioma) cells; conditions: for SF JU77 (selectivity factor): ratio of the IC50 value in MRC-5 to that in JU77
[7] = test system: AB1 and JU77 cell lines; test: cells; conditions: MPM, 72 h, read-out: IC50 (cytotoxicity) in both MPM cell lines
[8] = test system: AB1 (mouse malignant mesothelioma) cells
[9] = test system: AB1 cells; test: JC-1 assay of mitochondrial membrane potential; type: cell-based, mouse; conditions: for mitochondrial membrane depolarization (in words): 25 µM; for JC-1 Aggregates / JC-1 Monomers: representative dot plot
[10] = test system: AB1 and JU77 cell lines
[11] = Stability in DMSO-d6 by 1H NMR spectroscopy; type: physicochemical; conditions: DMSO-d6, 1H NMR spectra after 1, 20, 48 and 120 h
Text: For the synthesis of the target bis(1,2,4-oxadiazolyl)furoxans, we employed a synthetic approach based on the reaction of readily available furoxanylbis(amidoxime) 1c with in situ activated carboxylic acids, except for compound 2a, which was synthesized using orthoformate in the presence of boron trifluoride etherate. Specifically, activation of the corresponding carboxylic acid with 1,1′-carbonyldiimidazole, followed by the addition of bis(amidoxime) 1c and 1,4-diazabicyclo [2.2.2]octane (DABCO) as a base to promote the heterocyclization step, afforded the desired heterocyclic assemblies 2b–l (Scheme 1, Figures S1–S24). […] The stability of the synthesized heterocyclic compounds was further examined in DMSO-d6 via ^1H NMR spectroscopy. The representative compound 2j was completely stable in solution for at least 120 h. The corresponding set of ^1H NMR spectra recorded for 2j after 1, 20, 48, and 120 h is provided in the (supporting information (SI) Figure S25).
Figure S25. Stability of the representative compound 2j for 1 h, 20 h, 48 h and 120 h in DMSO -[d6] according to 1H NMR spectroscopy.
(1 picture or pasted object on this page, not shown here)

[12] = test system: AB1 cells; test: Annexin V/PI assay, flow cytometry; type: cell-based, mouse; conditions: 25 µM, 24 h
[13] = parameters: method as in PMID 40006597; conditions: % NO2− (μmol/μmol), cited from earlier work; for NO Released (%) 1 h: 1 h incubation; for NO Released (%) 24 h: 24 h incubation; for NO Released (%) 48 h: 48 h incubation
[14] = test system: AB1 (mouse malignant mesothelioma) cells; parameters: method as in PMID 40006597; conditions: MTT, 72 h exposure; cited from earlier work
[15] = test system: JU77 (human malignant mesothelioma) cells; parameters: method as in PMID 40006597; conditions: MTT, 72 h exposure; cited from earlier work
[16] = test system: MRC-5 (human embryonic lung fibroblast) cells; parameters: method as in PMID 40006597; conditions: MTT, 72 h exposure; cited from earlier work
[17] = positive control, 20 μM, 30 min

Compound	NO Released (%) 1 h [1]	NO Released (%) 24 h [1]	NO Released (%) 48 h [1]	IC50 [2]	intracellular NO release (in words) [3]	IC50 [4]	IC50 [5]	SF JU77 (selectivity factor) [6]	also measured
O=[N+]([O-])c1ccc(-c2nc(-c3no[n+]([O-])c3-c3noc(-c4ccc([N+](=O)[O-])cc4)n3)no2)cc1 [2b]	38 ± 3%	46 ± 1%	48 ± 2%	> 25 µM	minimal NO release	> 25 µM	> 25 µM	–	–
O=[N+]([O-])c1cccc(-c2nc(-c3no[n+]([O-])c3-c3noc(-c4cccc([N+](=O)[O-])c4)n3)no2)c1 [2c]	37 ± 1%	49 ± 2%	63 ± 2%	27.9 ± 4.6 µM	–	19.9 ± 4.3 µM	7.3 ± 1 µM	3.8	–
O=[N+]([O-])c1ccccc1-c1nc(-c2no[n+]([O-])c2-c2noc(-c3ccccc3[N+](=O)[O-])n2)no1 [2d]	54 ± 14%	69 ± 14%	72 ± 13%	16.8 ± 5.7 µM	highest levels of intracellular NO	11.2 ± 2 µM	3 ± 0.4 µM	5.7	IC50 [7]: 3 to 14 µM
[O-][n+]1onc(-c2noc(-c3ccccc3)n2)c1-c1noc(-c2ccccc2)n1 [2e]	51 ± 10%	61 ± 12%	64 ± 2%	17.7 ± 3.8 µM	minimal NO release	33.9 ± 3.4 µM	10.5 ± 0.5 µM	1.6	cytotoxic effects in the AB1 cell line (in words) [8]: no cytotoxic effects
[O-][n+]1onc(-c2noc(-c3ccncc3)n2)c1-c1noc(-c2ccncc2)n1 [2f]	71 ± 15%	94 ± 15%	103 ± 14%	29.9 ± 1.6 µM	highest levels of intracellular NO and high	8.5 ± 2.1 µM	14.1 ± 4.1 µM	2.1	NO-donor ranking (in words) [1]: most effective NO donors; total amount of released NO ([1]; with longer incubation periods): exceeded 100%; mitochondrial membrane depolarization (in words) ([9]; 24 h): markedly higher and relatively comparable levels of depolarization; JC-1 Aggregates ([9]; 25 μM, 24 h): 87.6%; JC-1 Monomers ([9]; 25 μM, 24 h): 12.4%; increase of cytotoxicity in AB1 cells relative to 2a [8]: 1.4 fold; decrease of cytotoxicity in JU77 cells relative to 2a [6]: 1.6 fold; IC50 [7]: 3 to 14 µM
Cc1ccc(-c2nc(-c3no[n+]([O-])c3-c3noc(-c4ccc(C)cc4)n3)no2)cc1 [2h]	37 ± 5%	52 ± 1%	56 ± 1%	> 25 µM	minimal NO release	> 25 µM	16 ± 3.9 µM	>1.6	cytotoxic effects in the AB1 cell line (in words) [8]: no cytotoxic effects; cytotoxicity (in words) [10]: lacked cytotoxic effects
COc1ccc(-c2nc(-c3no[n+]([O-])c3-c3noc(-c4ccc(OC)cc4)n3)no2)cc1 [2i]	75 ± 1%	78 ± 5%	89 ± 3%	> 25 µM	minimal NO release	> 25 µM	> 25 µM	–	NO-donor ranking (in words) [1]: most effective NO donors; cytotoxic effects in the AB1 cell line (in words) [8]: no cytotoxic effects; cytotoxicity (in words) [10]: lacked cytotoxic effects
COc1ccc(-c2nc(-c3no[n+]([O-])c3-c3noc(-c4ccc(OC)c(OC)c4)n3)no2)cc1OC [2j]	35 ± 2%	37 ± 3%	39 ± 5%	25.7 ± 8.7 µM	–	21.7 ± 4.5 µM	19.7 ± 2.1 µM	1.3	time completely stable in solution [11]: at least 120 h
[O-][n+]1onc(-c2noc(-c3ccccc3Cl)n2)c1-c1noc(-c2ccccc2Cl)n1 [2k]	37 ± 5%	41 ± 8%	43 ± 7%	7.8 ± 2.3 µM	low	15.5 ± 3 µM	4.9 ± 1.2 µM	–	mitochondrial membrane depolarization (in words) ([9]; 24 h): least mitochondrial damage; JC-1 Aggregates ([9]; 25 μM, 24 h): 96.3%; JC-1 Monomers ([9]; 25 μM, 24 h): 3.7%; induction of apoptosis/necrosis (in words) [12]: did not induce significant cancer cell death
NC(=O)c1c(CO)no[n+]1[O-] [CAS-1609, 3-carbamoyl-4-(hydroxymethyl)furoxan]	–	–	–	–	–	–	–	–	NO Released (%) 1 h [13]: 27% and 27 ± 3%; NO Released (%) 24 h [13]: 68 ± 6%; NO Released (%) 48 h [13]: 73 ± 6%
N#CC(C#N)=NNc1cccc(Cl)c1 [CCCP, carbonyl cyanide 3-chlorophenylhydrazone, reference compound]	–	–	–	–	–	–	–	–	JC-1 Aggregates [9, 17]: 30.1%; JC-1 Monomers [9, 17]: 69.9%
CCOc1no[n+]([O-])c1S(=O)(=O)c1ccccc1 [CHF-2363, 4-ethoxy-3-phenylsulfonylfuroxan]	–	–	–	–	–	–	–	–	NO Released (%) 1 h [13]: 26% and 26 ± 10%; NO Released (%) 24 h [13]: 71 ± 4%; NO Released (%) 48 h [13]: 77 ± 9%
N.N.[Cl][Pt][Cl] [Cisplatin, cisplatin]	–	–	–	–	–	–	–	–	IC50 [14]: 5.8 ± 1 µM; IC50 [15]: 4.2 ± 0.5 µM; IC50 [16]: 3.1 ± 1.2 µM
